For data set [1], the system named is GI 101A cells. Nature of the data set: cells. Type of data set: cell-based, human. Particulars: Homo sapiens, 24 h. The text has this: (§1) . Cell lines and Culture.
(§2) Drugs and Chemical Reagents. […] . […] All other chemicals were reagent grade.
(§3) Drug Treatment and Survival Curves.
(§4) Pharmacol. 28:370-376 (1991). […] .
(§5) Drug Combinations and Data Analysis. […] . Pharmacol. (in press, 1997). […] Enzyme Regul. […] Enzyme Regul. 22:27-55 (1984).
(§6) . […] Enzyme Regul. 22:27-55 (1984).

The test system of data set [2] is MDA-231 cells. Nature of the data set: cells. Type of data set: cell-based, human. Particulars: Homo sapiens.
Excerpt: as §1, §2, §3, §4, §5, §6

Data set [3] concerns GI 101A cells. Nature of the data set: Flow cytometric cell cycle analysis (propidium iodide). Type of data set: cell-based, human. To be noted: 100 nM CPT, 24 h.
Data set [4] concerns MDA-231 cells. Described as above. It is filed as cell-based, human. To be noted: 100 nM CPT, 24 h.
Data set [5] deals with normal endothelial cells (BVEC). The description is as above. Type of data set: cell-based, bovine. Particulars: 100 nM CPT, 24 h.
In data set [6] the test system is normal bovine venular endothelial cells (BVEC). Nature of the data set: cells. Particulars: Bos taurus, Endothelial cell, 24 h, read-out: dose inhibiting growth by 50% (CPT alone).
The test system of data set [7] is GI 101A cells. Particulars: cited from earlier work.
Data set [8] relates to MDA-231 cells. To be noted: cited from earlier work.
For a further data set, the system named is p34^cdc2 in HeLa cells. To be noted: CPT treatment; cited from earlier work.
In another data set the test system is CPT-resistant cells. Particulars: low doses of CPT; cited from earlier work.
Another data set deals with CPT-sensitive cells. To be noted: very high doses of CPT; cited from earlier work.
A further data set in a line: in vivo. To be noted: rat, iv, 10 mg/kg.
In the next data set the test system is HMEC/E6 (p53-). Nature of the data set: Crystal violet staining growth inhibition assay, median effect analysis. It is filed as cell-based. To be noted: Homo sapiens, 24 hr treatment. An excerpt:
Cytotoxicity and Bromodeoxyuridine incorporation assays. […] Enzyme Regul.

The subject of data set [9] is MDA-231 cells. Nature of the data set: ELISA BrdU incorporation assay (DNA synthesis). To be noted: TPT 10 and 50 nM, 24 hr. Type of data set: cell-based, human. On the technique in general: An ELISA detects its analyte on a solid surface through an enzyme-linked reagent.
Data set [10] has as its system MDA-231 cells. Nature of the data set: FACS cell cycle / BrdU DNA synthesis assay. It is filed as cell-based, human. Particulars: TPT 10, 50, 100 nM, 24 h, FIG. 8A.
The subject of data set [11] is murine bone marrow cells (CFU-GM). Nature of the data set: In vitro bone marrow cell protection assay (CFU-GM colonies). Particulars: Mus musculus, 0-1000 nM, combination 1:1 molar ratio. Type of data set: cell-based, C57/BL mice.
For data set [12] the following is noted: basic side-chain at position 9 forms salts with acids; cited from earlier work.
In the next data set the test system is HMEC (p53+). Nature of the data set: Crystal violet staining growth inhibition assay, median effect analysis. To be noted: Homo sapiens, 24 h, read-out: IC50 HMEC (p53+).
The subject of a further data set is MDA-231 (mutant p53). Described as above. To be noted: Homo sapiens, MDA-MB-231, 24 h, read-out: IC50 MDA-231 (p53-).
The subject of data set [13] is DNA damage-dependent G2 -checkpoint. Particulars: cited from earlier work.

Where two headings read alike, the source gives them in different places.

The text below walks through data of US6214821A, “Methods and composition for the inhibition of cancer cells” (Washington State University Research Foundation, priority 1999, dated 2001).

By half-life is commonly meant how long it takes for the measured level to halve. A high value points to slow loss.

Turning to `CC[C@@]1(O)C(=O)OCc2c1cc1n(c2=O)Cc2cc3ccccc3nc2-1` [CPT, Camptothecin], the IC50 in the data set on GI 101A cells [1] (read-out: 50% inhibition of cell growth (CPT alone)) is 0.3 µM; with GI 101A cells [1] (read-out: median-effect dose, Dm, for CPT), 0.104 µM; in the data set on MDA-231 cells [2] (MDA-MB-231, 24 h, read-out: 50% inhibition of cell growth (CPT alone)) it was 0.2 µM; with MDA-231 cells [2] (MDA-MB-231, 24 h, read-out: median-effect dose, Dm, for CPT) it was 0.028 µM; in the data set on MDA-231 cells [2] (MDA-MB-231, read-out: IC50 of CPT in the absence of UCN-01 (so in the source)), 0.005 µM; in data set [6] it was over 1 µM. Further, the “cell cycle effect of CPT alone” value (in the data set with GI 101A cells [3]; with MDA-231 cells [4]; in data set [5]) was “caused an arrest of tumor as well as normal cells in S phase” in each case. The “cell cycle effect of CPT at low and high doses” value with GI 101A cells [7] and with MDA-231 cells [8] was “in the G2 phase while at high doses cells are arrested in the S phase” each time. For the same compound, in the data set on p34^cdc2 in HeLa cells, the p34cdc2 activity result is reported as “loss in activity of p34^cdc2 in HeLa cells”. The 3H-thymidine incorporation result was “stopped incorporating ^3 H-thymidine” in the data set with CPT-resistant cells and “continued to incorporate ^3 H-thymidine” in the data set with CPT-sensitive cells. Moreover, the half-life in the data set “in vivo” (in vivo) stood at 1.42 h.

As for `CC[C@@]1(O)C(=O)OCc2c1cc1n(c2=O)Cc2cc3c(CN(C)C)c(O)ccc3nc2-1` [TPT, (S)-10[(dimethylamino)methyl]-4-ethyl-4,9-dihydroxy-IH-pyrano[3',4': 6,7]ind olizino[1,2-b]quinolone-3,14(4H,12H)-dione], the IC50 in the data set with HMEC/E6 (p53-) worked out at 0.034 µM; in data set [11], 0.019 µM; in the data set with HMEC (p53+), 0.006 µM; with MDA-231 (mutant p53), 0.037 µM. The BrdU incorporation entry in the data set on MDA-231 cells [9] is recorded as “stopped incorporating BrdU”. In the data set on MDA-231 cells [10], the “cell cycle effect of TPT by itself” value is “induced an accumulation of MDA-231 cells in S phase”. The water solubility entry in data set [12] is recorded as “water-soluble”. In addition, the half-life in the data set “in vivo” (plasma) turned out to be 1.53 h.

As to `Cn1c(=O)c2c(ncn2C)n(C)c1=O` [caffeine], the “effect on DNA damage-dependent G2 checkpoint” value in [13] is “override the DNA damage-dependent G2 -checkpoint and enhance drug-induced cytotoxicity”.
